This is an account of results in patent US10233179B2, “Thiazoles and uses thereof” (AbbVie Inc., priority 2013, dated 2019).

The EC50 is the concentration giving half of the maximal effect.

Structures are written as SMILES. Where only a bound is given, the exact number is not on record here.

For one series, the system named is HEp-2 cells. Put plainly: Cytotoxicity assay (MTT) in parallel with the antiviral assay. It counts as cell-based. Conditions: uninfected HEp-2 cells, 4 days incubation, MTT viability. As to the method:
HEp-2 cells and RSV (Group A, Long Strain) were obtained from the American Type Culture Collection (Manassas, Va.). Cytotoxicity of the compounds was determined in experiments done in parallel with the antiviral assays. To do this, 100 μL of assay medium was added to the wells of HEp-2 cells pretreated with 100 μL serially diluted compounds as described above. After 4 days of incubation, the viability of the cells was determined by the MTT assay in the same way as detailed in the “Antiviral Assay” method. Results were expressed as 50% toxicity dose (TD50) values. Compounds were tested to determine both their antiviral and toxicity to determine their therapeutic window. Determination of the EC50 and TD50 of these active compounds were repeated one additional time to confirm the window.

The test system of series [1] is RSV (Group A, Long Strain). The series can be described thus: Antiviral cytopathic effect (CPE) protection assay, MTT readout. The following applies: human respiratory syncytial virus, 96 h; HEp-2 cells, 0.2 MOI RSV, 4 days incubation, protection from CPE by MTT. The format is cell-based. As to the method: HEp-2 cells and RSV (Group A, Long Strain) were obtained from the American Type Culture Collection (Manassas, Va.).
A cytopathic effect (CPE) protection assay was performed to determine the ability of a compound to protect the cells from viral infection and thus the CPE induced by viral infection. 96-Well plates were first seeded with 3×10^3 HEp-2 cells per well in Dulbecco's modified Eagle's medium (DMEM) containing 10% fetal bovine serum (FBS). One day after the cells were seeded, they were preincubated with serial dilutions of compounds prepared in 100 μL assay medium (DMEM mixed with F12 medium at a 1:1 ratio, supplemented with 2% FBS and 1 mM sodium pyruvate) for 1 hour at 37° C. 100 μL of assay medium containing 0.2 multiplicity of infection (MOI) of RSV was then added to each well of cells. In addition to wells containing infected cells incubated with compounds, each plate also contained replicates of two kinds of controls: (1) Virus control contained cells infected with 0.2 MOI of RSV in assay medium, (2) Uninfected cell control contained cells incubated with assay medium only. After 4 days of incubation at 37° C., the viability of cells was assessed using MTT (Thiazolyl blue tetrazolium bromide, Sigma). A stock solution of MTT, at a concentration of 4 mg/mL in phosphate-buffered saline, was added to all wells at 25 μL per well. Plates were further incubated for 4 hours, and each well was then treated with 50 μL of a solution containing 20% sodium dodecyl sulfate (SDS) and 0.02 N HCl. After an overnight incubation, the plates were measured on a BioTek® microtiter plate reader at wavelengths of 570 nm and 650 nm. The MTT detection is based on the fact that viable (uninfected) cells can reduce the tetrazolium salts into colored formazan products, which can then be quantitated by spectrometry. Based on the spectrometric absorbance of each sample, the percent of protection from CPE, which is an indicator of protection from viral infection, can be calculated for each compound and the 50% effective concentrations (EC50) can be calculated using a nonlinear regression curve fitting equation provided by the GraphPad Prism® 4 software.
Compounds were tested to determine both their antiviral and toxicity to determine their therapeutic window. Determination of the EC50 and TD50 of these active compounds were repeated one additional time to confirm the window.
On the technique in general: Damage to the host cells serves as the signal in cytopathic effect assays.

As to `Cc1c(C(C)N(Cc2cccn2-c2nccs2)Cc2cccn2-c2nccs2)cnn1-c1cccc(F)c1` (racemic) [Example 1, 1-[1-(3-fluorophenyl)-5-methyl-1H-pyrazol-4-yl]-N,N-bis{[1-(1,3-thiazol-2-yl)-1H-pyrrol-2-yl]methyl}ethanamine], the “MTT TD50” value in the series with HEp-2 cells is 11 µM. In addition, it took 120 nM to reach a half-maximal effect in series [1] (EC50).
On the same counts, the results for `Cc1c([C@H](C)N(Cc2cccn2-c2nccs2)Cc2cccn2-c2nccs2)cnn1-c1cccc(F)c1` [Example 2, (1S)-1-[1-(3-fluorophenyl)-5-methyl-1H-pyrazol-4-yl]-N,N-bis{[1-(1,3-thiazol-2-yl)-1H-pyrrol-2-yl]methyl}ethanamine] are above 32 µM and 71 nM.
On the same counts, the results for `Cc1c([C@@H](C)N(Cc2cccn2-c2nccs2)Cc2cccn2-c2nccs2)cnn1-c1cccc(F)c1` [Example 3, (1R)-1-[1-(3-fluorophenyl)-5-methyl-1H-pyrazol-4-yl]-N,N-bis{[1-(1,3-thiazol-2-yl)-1H-pyrrol-2-yl]methyl}ethanamine] are above 32 µM and 960 nM.
As to `COc1ccccc1CN(Cc1cccn1-c1nccs1)C(C)c1cnn(-c2cccc(F)c2)c1C` (stereo not drawn) [Example 4, 1-[1-(3-fluorophenyl)-5-methyl-1H-pyrazol-4-yl]-N-(2-methoxybenzyl)-N-{[1-(1,3-thiazol-2-yl)-1H-pyrrol-2-yl]methyl}ethanamine], the “MTT TD50” value with HEp-2 cells came out at 0.48 µM. Also, in series [1], the EC50 is above 480 nM.
On the same counts, the results for `Cc1c(C(C)N(Cc2ccc(Cl)cc2-c2ccnc(C(F)(F)F)n2)Cc2cccn2-c2nccs2)cnn1-c1cccc(F)c1` (stereo not drawn) [Example 5, N-{4-chloro-2-[2-(trifluoromethyl)pyrimidin-4-yl]benzyl}-1-[1-(3-fluorophenyl)-5-methyl-1H-pyrazol-4-yl]-N-{[1-(1,3-thiazol-2-yl)-1H-pyrrol-2-yl]methyl}ethanamine] are 0.11 µM and above 110 nM.
Consider `Cc1cccc(C)c1-n1ccc(CN(Cc2cccn2-c2nccs2)C(C)c2cnn(-c3cccc(F)c3)c2C)c1` (stereo not drawn) [Example 6, N-{[1-(2,6-dimethylphenyl)-1H-pyrrol-3-yl]methyl}-1-[1-(3-fluorophenyl)-5-methyl-1H-pyrazol-4-yl]-N-{[1-(1,3-thiazol-2-yl)-1H-pyrrol-2-yl]methyl}ethanamine], for which the “MTT TD50” value with HEp-2 cells is 0.57 µM. The EC50 in series [1] was above 570 nM.
On the same counts, the results for `Cc1c(C(C)N(Cc2ncc(-c3ccccc3)n2C)Cc2ncc(-c3ccccc3)n2C)cnn1-c1cccc(F)c1` (stereo not drawn) [Example 7, 1-[1-(3-fluorophenyl)-5-methyl-1H-pyrazol-4-yl]-N,N-bis[(1-methyl-5-phenyl-1H-imidazol-2-yl)methyl]ethanamine] are 5.2 µM and 320 nM.
On the same counts, the results for `COc1ccc(CN(Cc2cccn2-c2nncs2)Cc2cccn2-c2nncs2)c(OC)c1` [Example 8, 1-(2,4-dimethoxyphenyl)-N,N-bis{[1-(1,3,4-thiadiazol-2-yl)-1H-pyrrol-2-yl]methyl}methanamine] are 22 µM and 240 nM.
On the same counts, the results for `Cn1nccc1N(Cc1cccn1-c1nncs1)Cc1cccn1-c1nncs1` [Example 9, 1-methyl-N,N-bis{[1-(1,3,4-thiadiazol-2-yl)-1H-pyrrol-2-yl]methyl}-1H-pyrazol-5-amine] are above 32 µM and 4900 nM.
Consider `c1ccc(CN(Cc2cccn2-c2nncs2)Cc2cccn2-c2nncs2)cc1` [Example 10, 1-phenyl-N,N-bis{[1-(1,3,4-thiadiazol-2-yl)-1H-pyrrol-2-yl]methyl}methanamine], for which the “MTT TD50” value with HEp-2 cells was found to be 97 µM. Also, the EC50 in series [1] amounted to 520 nM.
On the same counts, the results for `c1cc(CN(Cc2cccn2-c2nncs2)CC2C[C@H]3CC[C@@H]2C3)n(-c2nncs2)c1` (stereo partly drawn) [Example 11, 1-[(1R,4S)-bicyclo[2.2.1]hept-2-yl]-N,N-bis{[1-(1,3,4-thiadiazol-2-yl)-1H-pyrrol-2-yl]methyl}methanamine] are 26 µM and 560 nM.
Take `Cc1ccccc1CN(Cc1cccn1-c1nncs1)Cc1cccn1-c1nncs1` [Example 12, 1-(2-methylphenyl)-N,N-bis{[1-(1,3,4-thiadiazol-2-yl)-1H-pyrrol-2-yl]methyl}methanamine]: the “MTT TD50” value in the series on HEp-2 cells is above 10 µM. For the same molecule, the EC50 in series [1] worked out at 64 nM.
On the same counts, the results for `C[C@H](c1ccc(F)cc1)N(Cc1cccn1-c1nncs1)Cc1cccn1-c1nncs1` [Example 13, (1R)-1-(4-fluorophenyl)-N,N-bis{[1-(1,3,4-thiadiazol-2-yl)-1H-pyrrol-2-yl]methyl}ethanamine] are 93 µM and 14000 nM.
On the same counts, the results for `Clc1cnc(CN(Cc2cccn2-c2nncs2)Cc2cccn2-c2nncs2)c(Cl)c1` [Example 14, 1-(3,5-dichloropyridin-2-yl)-N,N-bis{[1-(1,3,4-thiadiazol-2-yl)-1H-pyrrol-2-yl]methyl}methanamine] are 90 µM and 4800 nM.
For the molecule `Fc1ccccc1CN(Cc1cccn1-c1nncs1)Cc1cccn1-c1nncs1` [Example 15, 1-(2-fluorophenyl)-N,N-bis{[1-(1,3,4-thiadiazol-2-yl)-1H-pyrrol-2-yl]methyl}methanamine], the “MTT TD50” value in the series on HEp-2 cells came out at 67 µM. Besides, in series [1], the EC50 was found to be 120 nM.
In the case of `FC(F)(F)c1cccc(CN(Cc2cccn2-c2nncs2)Cc2cccn2-c2nncs2)c1` [Example 16, 1-[1-(1,3,4-thiadiazol-2-yl)-1H-pyrrol-2-yl]-N-{[1-(1,3,4-thiadiazol-2-yl)-1H-pyrrol-2-yl]methyl}-N-[3-(trifluoromethyl)benzyl]methanamine], in the series with HEp-2 cells, the “MTT TD50” value worked out at 30 µM. Besides, in series [1], a half-maximal response (EC50) required 2100 nM.
On the same counts, the results for `CC(c1ccc(Cl)c(Cl)c1)N(Cc1cccn1-c1nncs1)Cc1cccn1-c1nncs1` (stereo not drawn) [Example 17, 1-(3,4-dichlorophenyl)-N,N-bis{[1-(1,3,4-thiadiazol-2-yl)-1H-pyrrol-2-yl]methyl}ethanamine] are above 32 µM and 15000 nM.
As for `Clc1ccccc1CN(Cc1cccn1-c1nncs1)Cc1cccn1-c1nncs1` [Example 18, 1-(2-chlorophenyl)-N,N-bis{[1-(1,3,4-thiadiazol-2-yl)-1H-pyrrol-2-yl]methyl}methanamine], the “MTT TD50” value in the series with HEp-2 cells is above 32 µM. This molecule had an EC50 in series [1] of 62 nM.
On the same counts, the results for `C[C@H](c1ccccc1Cl)N(Cc1cccn1-c1nncs1)Cc1cccn1-c1nncs1` [Example 19, (1R)-1-(2-chlorophenyl)-N,N-bis{[1-(1,3,4-thiadiazol-2-yl)-1H-pyrrol-2-yl]methyl}ethanamine] are above 32 µM and 2800 nM.
On the same counts, the results for `C[C@@H](c1ccccc1Cl)N(Cc1cccn1-c1nncs1)Cc1cccn1-c1nncs1` [Example 20, (1S)-1-(2-chlorophenyl)-N,N-bis{[1-(1,3,4-thiadiazol-2-yl)-1H-pyrrol-2-yl]methyl}ethanamine] are above 32 µM and 360 nM.
On the same counts, the results for `c1ccc(C2(CCN(Cc3cccn3-c3nncs3)Cc3cccn3-c3nncs3)CC2)nc1` [Example 21, 2-[1-(pyridin-2-yl)cyclopropyl]-N,N-bis{[1-(1,3,4-thiadiazol-2-yl)-1H-pyrrol-2-yl]methyl}ethanamine] are above 32 µM and 62 nM.
